Data reported in patent publication US10239840B2, “Benzoazepine derivatives” (ViiV HEALTHCARE UK LIMITED, priority 2015, dated 2019).

Test system: HIV
Test: MT4 assay, antiviral HIV activity
Format: cell-based
Conditions: MT-4 cells (HTLV-1 transformed), read-out at 96 hours with cell titer glo
Procedure: Antiviral HIV activity and cytotoxicity values for compounds of the invention from Table 1 were measured in parallel in the HTLV-1 transformed cell line MT-4 based on the method previously described (Hazen et al., 2007, In vitro antiviral activity of the novel, tyrosyl-based human immunodeficiency virus (HIV) type 1 protease inhibitor brecanavir (GW640385) in combination with other antiretrovirals and against a panel of protease inhibitor-resistant HIV (Hazen et al., “In vitro antiviral activity of the novel, tyrosyl-based human immunodeficiency virus (HIV) type 1 protease inhibitor brecanavir (GW640385) in combination with other antiretrovirals and against a panel of protease inhibitor-resistant HIV”, Antimicrob. Agents Chemother. 2007, 51: 3147-3154; and Pauwels et al., “Sensitive and rapid assay on MT-4 cells for the detection of antiviral compounds against the AIDS virus”, J. of Virological Methods 1987, 16: 171-185).
Luciferase activity was measured 96 hours later by adding a cell titer glo (Promega, Madison, Wis.). Percent inhibition of cell protection data was plotted relative to no compound control. Under the same condition, cytotoxicity of the compounds was determined using cell titer Glo™ (Promega, Madison, Wis.). IC50s were determined from a 10 point dose response curve using 3-4-fold serial dilution for each compound, which spans a concentration range >1000 fold.
These values are plotted against the molar compound concentrations using the standard four parameter logistic equation: y=((Vmax*x^n)/(K^n+x^n)+Y2
Y2=minimum γ n=slope factor
Vmax=maximum γ x=compound concentration [M]

Cc1ccc(-c2c(C)c3c(c(C)c2[C@H](OC(C)(C)C)C(=O)O)CCN(C(=O)c2cccc(F)c2)CC3)cc1 [Example 4, (S)-2-(tert-butoxy)-2-(3-(3-fluorobenzoyl)-6,9-dimethyl-8-(p-tolyl)-2,3,4,5-tetrahydro-1H-benzo[d]azepin-7-yl)acetic Acid]
IC50: 34 nM
